What was measured:
Conditions in all cases: incubation time: 72 h
MFM-223 [1] = experiment: normalised viability (% of control), CellTiter-Blue; higher = more viable cells (about 100 = DMSO control)
Method in brief: (§1)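 The reported quantity is normalised viability at a single listed concentration of the series. Compound in 5 µl medium was pre-dispensed into 384-well plates and 20 µl of breast cancer cell suspension was added for 72 h. A 2 h, 37 °C CellTiter-Blue step (2.5 µl) preceded fluorescence reading at 560/590 nm, and plates were normalised to vehicle (100) and a positive kill control (0).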

HCC1599 [2] = experiment: as above
Method in brief: as §1

MDA-MB-436 [3] = experiment: as above
Method in brief: as §1

Hs578T [4] = experiment: as above
Method in brief: as §1

MDA-MB-453 [5] = experiment: as above
Method in brief: as §1

CAL-51 [6] = experiment: as above
Method in brief: as §1

CAL-120 [7] = experiment: as above
Method in brief: as §1

MFM-223 [8] = experiment: drug sensitivity score (DSS), CellTiter-Blue viability (DSS (AUC-based score)); higher = stronger viability inhibition; extreme values may be limits of the assay
Procedure: (§2)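 DSRT with the CellTiter-Blue (resazurin reduction) viability readout, fluorescence 560/590 nm, 72 h incubation. Plates were normalised to DMSO and benzethonium chloride controls. DSS is computed from the area under the fitted dose-response curve (5 or 9 concentrations).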

HCC1599 [9] = experiment: as above
Procedure: as §2

MDA-MB-436 [10] = experiment: as above
Procedure: as §2

HCC1143 = experiment: as above
Procedure: as §2

HCC1937 = experiment: as above
Procedure: as §2

Hs578T [11] = experiment: as above
Procedure: as §2

SK-BR-3 = experiment: as above
Procedure: as §2

MDA-MB-453 [12] = experiment: as above
Procedure: as §2

BT-474 = experiment: as above
Procedure: as §2

CAL-148 = experiment: as above
Procedure: as §2

MDA-MB-468 = experiment: as above
Procedure: as §2

HDQ-P1 = experiment: as above
Procedure: as §2

CAL-51 [13] = experiment: as above
Procedure: as §2

MDA-MB-231 = experiment: as above
Procedure: as §2

CAL-85-1 = experiment: as above
Procedure: as §2

DU-4475 = experiment: as above
Procedure: as §2

BT-549 = experiment: as above
Procedure: as §2

CAL-120 [14] = experiment: as above
Procedure: as §2

CC[C@H](CO)Nc1nc(NCc2ccccc2)c2ncn(C(C)C)c2n1 [Roscovitine] showed a normalised viability (MFM-223 [1]; 10 nM) of 92.5%, a normalised viability (MFM-223 [1]; 1000 nM) of 91.5% and a normalised viability (MFM-223 [1]; 10000 nM) of 85.1%. It also gave a normalised viability (HCC1599 [2]; 10 nM) of 109%, a normalised viability (HCC1599 [2]; 1000 nM) of 95.8% and a normalised viability (HCC1599 [2]; 10000 nM) of 64.4%. It also gave a normalised viability (MDA-MB-436 [3]; 10 nM) of 107%, a normalised viability (MDA-MB-436 [3]; 1000 nM) of 92.7% and a normalised viability (MDA-MB-436 [3]; 10000 nM) of 79.4%. For the same compound, the normalised viability (Hs578T [4]; 10 nM) was 111%, the normalised viability (Hs578T [4]; 1000 nM) was 91.4% and the normalised viability (Hs578T [4]; 10000 nM) was 42.6%. For the same compound, the normalised viability (MDA-MB-453 [5]; 3 nM) was 105%, the normalised viability (MDA-MB-453 [5]; 30 nM) was 114% and the normalised viability (MDA-MB-453 [5]; 100 nM) was 109%. The normalised viability (CAL-51 [6]; 3 nM) was 111%, the normalised viability (CAL-51 [6]; 30 nM) was 105% and the normalised viability (CAL-51 [6]; 100 nM) was 105%. The normalised viability (CAL-120 [7]; 10 nM) was 82.7%, the normalised viability (CAL-120 [7]; 1000 nM) was 86.1% and the normalised viability (CAL-120 [7]; 10000 nM) was 76.3%. For the same compound, the drug sensitivity score (MFM-223 [8]) was 0, the drug sensitivity score (HCC1599 [9]) was 2.39 and the drug sensitivity score (MDA-MB-436 [10]) was 0.894. The drug sensitivity score (HCC1143) was 5.44, the drug sensitivity score (HCC1937) was 0 and the drug sensitivity score (Hs578T [11]) was 2.74. It also gave a drug sensitivity score (SK-BR-3) of 0, a drug sensitivity score (MDA-MB-453 [12]) of 0 and a drug sensitivity score (BT-474) of 0. For the same compound, the drug sensitivity score (CAL-148) was 0, the drug sensitivity score (MDA-MB-468) was 0 and the drug sensitivity score (HDQ-P1) was 0. The drug sensitivity score (CAL-51 [13]) was 0, the drug sensitivity score (MDA-MB-231) was 0 and the drug sensitivity score (CAL-85-1) was 0. For the same compound, the drug sensitivity score (DU-4475) was 0, the drug sensitivity score (BT-549) was 2.4 and the drug sensitivity score (CAL-120 [14]) was 0.
C/C(=C\c1csc(C)n1)[C@@H]1C[C@@H]2O[C@]2(C)CCC[C@H](C)[C@H](O)[C@@H](C)C(=O)C(C)(C)[C@@H](O)CC(=O)N1 [Ixabepilone] gave a normalised viability (MFM-223 [1]; 1 nM) of 76.8%, a normalised viability (MFM-223 [1]; 100 nM) of 75.8% and a normalised viability (MFM-223 [1]; 1000 nM) of 31.6%. It also gave a normalised viability (HCC1599 [2]; 1 nM) of 98.5%, a normalised viability (HCC1599 [2]; 100 nM) of 87.6% and a normalised viability (HCC1599 [2]; 1000 nM) of 81.2%. It also gave a normalised viability (MDA-MB-436 [3]; 1 nM) of 88.8%, a normalised viability (MDA-MB-436 [3]; 100 nM) of 90.1% and a normalised viability (MDA-MB-436 [3]; 1000 nM) of 51.7%. For the same compound, the normalised viability (Hs578T [4]; 1 nM) was 107%, the normalised viability (Hs578T [4]; 100 nM) was 98.8% and the normalised viability (Hs578T [4]; 1000 nM) was 25%. It also gave a normalised viability (MDA-MB-453 [5]; 0.3 nM) of 108%, a normalised viability (MDA-MB-453 [5]; 3 nM) of 87.4% and a normalised viability (MDA-MB-453 [5]; 10 nM) of 87.3%. The normalised viability (CAL-51 [6]; 0.3 nM) was 110%, the normalised viability (CAL-51 [6]; 3 nM) was 107% and the normalised viability (CAL-51 [6]; 10 nM) was 107%. The normalised viability (CAL-120 [7]; 1 nM) was 75.6%, the normalised viability (CAL-120 [7]; 100 nM) was 78.3% and the normalised viability (CAL-120 [7]; 1000 nM) was 50.4%. The drug sensitivity score (MFM-223 [8]) was 2.45, the drug sensitivity score (HCC1599 [9]) was 1.1 and the drug sensitivity score (MDA-MB-436 [10]) was 4.17. For the same compound, the drug sensitivity score (HCC1143) was 1.78, the drug sensitivity score (HCC1937) was 5.41 and the drug sensitivity score (Hs578T [11]) was 2.45. The drug sensitivity score (SK-BR-3) was 3.73, the drug sensitivity score (MDA-MB-453 [12]) was 3.24 and the drug sensitivity score (BT-474) was 2.15. The drug sensitivity score (CAL-148) was 2.58, the drug sensitivity score (MDA-MB-468) was 3.09 and the drug sensitivity score (HDQ-P1) was 0. For the same compound, the drug sensitivity score (CAL-51 [13]) was 0.607, the drug sensitivity score (MDA-MB-231) was 10.5 and the drug sensitivity score (CAL-85-1) was 2.08. For the same compound, the drug sensitivity score (DU-4475) was 2.31, the drug sensitivity score (BT-549) was 3.35 and the drug sensitivity score (CAL-120 [14]) was 0.647.
CCNC(=O)CCC/C=C\C[C@@H]1[C@@H](/C=C/[C@@H](O)CCc2ccccc2)[C@H](O)C[C@@H]1O [Bimatoprost] was tested, and the normalised viability (MFM-223 [1]; 5.5 nM) was 112%, the normalised viability (MFM-223 [1]; 550 nM) was 104% and the normalised viability (MFM-223 [1]; 5500 nM) was 96.7%. For the same compound, the normalised viability (HCC1599 [2]; 5.5 nM) was 111%, the normalised viability (HCC1599 [2]; 550 nM) was 111% and the normalised viability (HCC1599 [2]; 5500 nM) was 112%. For the same compound, the normalised viability (MDA-MB-436 [3]; 5.5 nM) was 111%, the normalised viability (MDA-MB-436 [3]; 550 nM) was 111% and the normalised viability (MDA-MB-436 [3]; 5500 nM) was 103%. It also gave a normalised viability (Hs578T [4]; 5.5 nM) of 110%, a normalised viability (Hs578T [4]; 550 nM) of 116% and a normalised viability (Hs578T [4]; 5500 nM) of 98.1%. For the same compound, the normalised viability (MDA-MB-453 [5]; 1.65 nM) was 116%, the normalised viability (MDA-MB-453 [5]; 16.5 nM) was 91.7% and the normalised viability (MDA-MB-453 [5]; 55 nM) was 92.5%. It also gave a normalised viability (CAL-51 [6]; 1.65 nM) of 124%, a normalised viability (CAL-51 [6]; 16.5 nM) of 114% and a normalised viability (CAL-51 [6]; 55 nM) of 112%. It also gave a normalised viability (CAL-120 [7]; 5.5 nM) of 95.3%, a normalised viability (CAL-120 [7]; 550 nM) of 92.4% and a normalised viability (CAL-120 [7]; 5500 nM) of 94%. The drug sensitivity score (MFM-223 [8]) was 0, the drug sensitivity score (HCC1599 [9]) was 0 and the drug sensitivity score (MDA-MB-436 [10]) was 0. It also gave a drug sensitivity score (HCC1143) of 0, a drug sensitivity score (HCC1937) of 0 and a drug sensitivity score (Hs578T [11]) of 0. The drug sensitivity score (SK-BR-3) was 0, the drug sensitivity score (MDA-MB-453 [12]) was 0 and the drug sensitivity score (BT-474) was 0. The drug sensitivity score (CAL-148) was 0, the drug sensitivity score (MDA-MB-468) was 0 and the drug sensitivity score (HDQ-P1) was 0. The drug sensitivity score (CAL-51 [13]) was 0, the drug sensitivity score (MDA-MB-231) was 0 and the drug sensitivity score (CAL-85-1) was 0. For the same compound, the drug sensitivity score (DU-4475) was 0, the drug sensitivity score (BT-549) was 0 and the drug sensitivity score (CAL-120 [14]) was 0.
COc1cc(Nc2c(C#N)cnc3cc(OCCCN4CCN(C)CC4)c(OC)cc23)c(Cl)cc1Cl [Bosutinib] showed a normalised viability (MFM-223 [1]; 10 nM) of 100%, a normalised viability (MFM-223 [1]; 1000 nM) of 80.8% and a normalised viability (MFM-223 [1]; 10000 nM) of 36.8%. It also gave a normalised viability (HCC1599 [2]; 10 nM) of 131%, a normalised viability (HCC1599 [2]; 1000 nM) of 93.3% and a normalised viability (HCC1599 [2]; 10000 nM) of 51.7%. The normalised viability (MDA-MB-436 [3]; 10 nM) was 111%, the normalised viability (MDA-MB-436 [3]; 1000 nM) was 95% and the normalised viability (MDA-MB-436 [3]; 10000 nM) was 16.8%. It also gave a normalised viability (Hs578T [4]; 10 nM) of 120%, a normalised viability (Hs578T [4]; 1000 nM) of 98.2% and a normalised viability (Hs578T [4]; 10000 nM) of 27.4%. For the same compound, the normalised viability (MDA-MB-453 [5]; 3 nM) was 120%, the normalised viability (MDA-MB-453 [5]; 30 nM) was 107% and the normalised viability (MDA-MB-453 [5]; 100 nM) was 105%. For the same compound, the normalised viability (CAL-51 [6]; 3 nM) was 115%, the normalised viability (CAL-51 [6]; 30 nM) was 114% and the normalised viability (CAL-51 [6]; 100 nM) was 120%. For the same compound, the normalised viability (CAL-120 [7]; 10 nM) was 87.5%, the normalised viability (CAL-120 [7]; 1000 nM) was 70.5% and the normalised viability (CAL-120 [7]; 10000 nM) was 11.1%. It also gave a drug sensitivity score (MFM-223 [8]) of 4.68, a drug sensitivity score (HCC1599 [9]) of 3.68 and a drug sensitivity score (MDA-MB-436 [10]) of 4.98. For the same compound, the drug sensitivity score (HCC1143) was 5.05, the drug sensitivity score (HCC1937) was 6.37 and the drug sensitivity score (Hs578T [11]) was 3.1. For the same compound, the drug sensitivity score (SK-BR-3) was 7.78, the drug sensitivity score (MDA-MB-453 [12]) was 6.37 and the drug sensitivity score (BT-474) was 5.59. It also gave a drug sensitivity score (CAL-148) of 7.34, a drug sensitivity score (MDA-MB-468) of 5.03 and a drug sensitivity score (HDQ-P1) of 6.6. For the same compound, the drug sensitivity score (CAL-51 [13]) was 3.35, the drug sensitivity score (MDA-MB-231) was 6.93 and the drug sensitivity score (CAL-85-1) was 5.55. It also gave a drug sensitivity score (DU-4475) of 2.82, a drug sensitivity score (BT-549) of 5.28 and a drug sensitivity score (CAL-120 [14]) of 8.36.

Reference: the supplement of paper PMC4862054
